Tests used:
VEGFR2 = molecular target: T1, VEGFR2 (Homo sapiens, UniProt P35968); experiment: VEGFR2 in vitro kinase inhibitory activity assay (TRF); assay type: biochemical; details: read-out: VEGFR2 IC50(μM) or % I; for IC50: 0.5 μM ATP, 1 hour
T1 construct: purchased Upstate

FGFR3 = molecular target: T2, FGFR3 (Homo sapiens, UniProt P22607); experiment: FGFR3 in vitro kinase inhibitory activity assay (TRF); assay type: biochemical; details: 8 μM ATP, 3 hours; read-out: FGFR3 IC50(μM) or % I
T2 construct: purchased Upstate

[1] = test system: parental wild-type Ba/F3 cells; experiment: Ba/F3 (WT) cell proliferation assay (Alamar Blue); assay type: cell-based; details: BaF3, 72 hours, read-out: BaF3 WT prolif; for IC50: with mouse IL-3
Method in brief: (§1)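 Ba/F3-TEL-FGFR3 cells (5×10^3/well, G418) and parental Ba/F3 (2.5×10^3/well, 2 ng/ml mouse IL-3) in RPMI/10% FBS, plated overnight, then compound for 72 h at 0.1% DMSO final. Alamar Blue 4-6 h, fluorescence 535/590 nm; IC50 where inhibition high.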

Ba/F3-TEL-FGFR3 cells = molecular target: T3, Ba/F3-TEL-FGFR3 cells (Homo sapiens, UniProt P22607); experiment: Ba/F3-TEL-FGFR3 cell proliferation assay (Alamar Blue); assay type: cell-based; details: 72 hours; for GI50: read-out: BaF3-TEL-FGFR3 prolif
T3 construct: fused on or other part: P41212 (Transcription factor ETV6)
Method in brief: as §1

T1 sequence (P35968 20-1356): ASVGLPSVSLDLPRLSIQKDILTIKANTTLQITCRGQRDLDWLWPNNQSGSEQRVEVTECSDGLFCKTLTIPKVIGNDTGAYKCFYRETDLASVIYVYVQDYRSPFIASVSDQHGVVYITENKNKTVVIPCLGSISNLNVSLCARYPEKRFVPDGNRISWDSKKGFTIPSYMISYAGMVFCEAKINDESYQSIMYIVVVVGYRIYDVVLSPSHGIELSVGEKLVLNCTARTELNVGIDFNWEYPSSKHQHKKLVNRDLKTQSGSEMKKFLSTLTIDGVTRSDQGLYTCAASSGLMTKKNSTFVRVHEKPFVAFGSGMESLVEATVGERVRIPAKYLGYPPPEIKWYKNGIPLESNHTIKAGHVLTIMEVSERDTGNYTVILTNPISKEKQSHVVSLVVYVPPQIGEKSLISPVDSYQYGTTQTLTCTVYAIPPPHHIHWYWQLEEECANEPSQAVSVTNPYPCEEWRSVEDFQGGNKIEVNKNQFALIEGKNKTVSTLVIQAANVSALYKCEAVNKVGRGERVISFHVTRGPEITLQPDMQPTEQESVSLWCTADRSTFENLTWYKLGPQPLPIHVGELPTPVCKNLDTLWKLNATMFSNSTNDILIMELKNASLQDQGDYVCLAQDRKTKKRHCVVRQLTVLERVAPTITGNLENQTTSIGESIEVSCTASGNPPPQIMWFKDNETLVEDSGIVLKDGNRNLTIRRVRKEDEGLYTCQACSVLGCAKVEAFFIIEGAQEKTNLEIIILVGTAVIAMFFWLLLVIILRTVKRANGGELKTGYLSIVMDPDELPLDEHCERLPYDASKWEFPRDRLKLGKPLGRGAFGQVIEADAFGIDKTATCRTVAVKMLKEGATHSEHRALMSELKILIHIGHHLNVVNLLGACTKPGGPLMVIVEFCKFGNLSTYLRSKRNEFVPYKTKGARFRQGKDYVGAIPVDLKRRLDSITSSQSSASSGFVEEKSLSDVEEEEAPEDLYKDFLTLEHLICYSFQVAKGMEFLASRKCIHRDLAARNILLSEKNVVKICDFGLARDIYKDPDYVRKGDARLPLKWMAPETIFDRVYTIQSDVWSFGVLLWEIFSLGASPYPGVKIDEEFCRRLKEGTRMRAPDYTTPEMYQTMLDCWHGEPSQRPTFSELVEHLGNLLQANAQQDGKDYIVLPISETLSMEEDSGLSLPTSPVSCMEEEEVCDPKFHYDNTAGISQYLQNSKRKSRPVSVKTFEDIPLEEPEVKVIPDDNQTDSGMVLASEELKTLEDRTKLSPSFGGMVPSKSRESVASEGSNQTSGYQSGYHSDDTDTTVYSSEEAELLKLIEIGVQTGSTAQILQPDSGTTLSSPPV
T2 sequence (P22607 23-806): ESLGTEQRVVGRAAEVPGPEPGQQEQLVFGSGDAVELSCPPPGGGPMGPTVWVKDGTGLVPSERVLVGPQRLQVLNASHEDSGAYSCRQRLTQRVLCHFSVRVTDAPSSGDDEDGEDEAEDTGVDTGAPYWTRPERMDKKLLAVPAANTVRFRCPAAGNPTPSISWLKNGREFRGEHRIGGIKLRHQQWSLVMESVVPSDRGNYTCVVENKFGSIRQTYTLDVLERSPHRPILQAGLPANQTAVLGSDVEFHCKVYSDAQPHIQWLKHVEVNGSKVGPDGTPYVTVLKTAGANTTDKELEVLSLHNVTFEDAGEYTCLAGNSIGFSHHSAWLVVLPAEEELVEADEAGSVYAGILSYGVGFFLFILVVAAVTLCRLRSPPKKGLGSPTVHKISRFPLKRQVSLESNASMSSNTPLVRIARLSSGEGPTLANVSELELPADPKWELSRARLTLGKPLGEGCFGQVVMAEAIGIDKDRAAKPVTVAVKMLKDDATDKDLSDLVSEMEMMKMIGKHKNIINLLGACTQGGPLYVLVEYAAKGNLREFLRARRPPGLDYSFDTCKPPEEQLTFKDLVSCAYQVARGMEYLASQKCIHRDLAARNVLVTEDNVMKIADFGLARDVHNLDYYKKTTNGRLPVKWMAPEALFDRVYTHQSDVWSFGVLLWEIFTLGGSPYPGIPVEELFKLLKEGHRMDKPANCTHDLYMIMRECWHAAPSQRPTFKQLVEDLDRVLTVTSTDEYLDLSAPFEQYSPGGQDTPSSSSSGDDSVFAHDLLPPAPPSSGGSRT
T3 sequence (P22607 whole entry, change not shown, the tested form may be a part): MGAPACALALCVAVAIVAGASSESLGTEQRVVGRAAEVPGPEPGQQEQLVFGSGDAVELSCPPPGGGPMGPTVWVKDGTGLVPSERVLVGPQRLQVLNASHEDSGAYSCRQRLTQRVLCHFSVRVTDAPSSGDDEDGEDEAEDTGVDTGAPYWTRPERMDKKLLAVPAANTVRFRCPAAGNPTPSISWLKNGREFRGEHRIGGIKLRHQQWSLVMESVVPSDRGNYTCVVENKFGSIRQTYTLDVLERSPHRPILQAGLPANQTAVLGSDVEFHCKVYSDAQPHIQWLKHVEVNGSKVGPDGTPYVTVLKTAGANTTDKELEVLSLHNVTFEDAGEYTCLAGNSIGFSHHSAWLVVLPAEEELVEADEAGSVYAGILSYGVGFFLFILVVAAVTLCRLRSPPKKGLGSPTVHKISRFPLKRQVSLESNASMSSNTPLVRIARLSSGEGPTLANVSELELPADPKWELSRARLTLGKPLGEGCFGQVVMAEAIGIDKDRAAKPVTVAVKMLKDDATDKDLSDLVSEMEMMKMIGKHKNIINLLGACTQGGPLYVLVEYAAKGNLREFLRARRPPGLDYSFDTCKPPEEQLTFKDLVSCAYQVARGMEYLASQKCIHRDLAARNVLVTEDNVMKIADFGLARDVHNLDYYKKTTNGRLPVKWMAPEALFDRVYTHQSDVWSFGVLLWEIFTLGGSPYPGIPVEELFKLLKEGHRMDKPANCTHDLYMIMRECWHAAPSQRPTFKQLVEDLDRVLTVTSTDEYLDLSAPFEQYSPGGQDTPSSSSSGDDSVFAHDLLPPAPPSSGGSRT

Row | IC50 (VEGFR2) [µM] | melting point [°C] | IC50 (FGFR3) [µM] | inhibition at 1 µM (VEGFR2; 1 h, % I at 1 μM) [%] | GI50 (Ba/F3-TEL-FGFR3 cells) [nM] | BaF3-TEL-FGFR3 prolif (μM) (Ba/F3-TEL-FGFR3 cells; % at 1.00 μM) [% at] | SMILES | IC50 [1] [µM] | inhibition at 3 µM ([1]; Mus musculus) [%] | inhibition at 1 µM ([1]; Mus musculus, % at 1.00 μM) [%] | inhibition at 10 µM ([1]; Mus musculus) [%]
1 | – | – | 0.027 | 46 | 600 | – | O=C(NCC(F)(F)F)Nc1cccc(-c2cnc3cc(C=NOCC4CC4)ccn23)c1 [Compound 1-11, 1-{3-[7-(Cyclopropylmethoxyimino-methyl)-imidazo[1,2-a]pyridin-3-yl]-phenyl}-3-(2,2,2-trifluoro-ethyl)-urea] | 0.88 | – | – | –
2 | 0.56 | – | 0.022 | – | – | 85.0 | N#CCCN1CCN(CCCON=Cc2ccn3c(-c4cccc(NC(=O)NCC(F)(F)F)c4)cnc3c2)CC1 [Compound 1-60, 1-{3-[7-({3-[4-(2-Cyano-ethyl)-piperazin-1-yl]-propoxyimino}-methyl)-imidazo[1,2-a]pyridin-3-yl]-phenyl}-3-(2,2,2-trifluoro-ethyl)-urea] | – | – | 0 | –
3 | 1.79 | – | 0.0551 | – | 860 | – | COCCN(CCON=Cc1ccn2c(-c3cccc(NC(=O)NCC(F)(F)F)c3)cnc2c1)Cc1ccccc1 [Compound 1-41, 1-{3-[7-({2-[Benzyl-(2-methoxy-ethyl)-amino]-ethoxyimino}-methyl)-imidazo[1,2-a]pyridin-3-yl]-phenyl}-3-(2,2,2-trifluoro-ethyl)-urea] | 5.9 | – | – | –
4 | 0.068 | – | 0.0031 | – | 32 | – | C/C(=N\OCCOCCO)c1ccn2c(-c3cccc(NC(=O)NCC(F)(F)F)c3)cnc2c1 [Compound 1-46, 1-[3-(7-{1-[2-(2-Hydroxy-ethoxy)-ethoxyimino]-ethyl}-imidazo[1,2-a]pyridin-3-yl)-phenyl]-3-(2,2,2-trifluoro-ethyl)-urea] | – | – | – | 39
5 | 0.877 | – | 0.0313 | – | 2300 | – | O=C(NCC(F)(F)F)Nc1cccc(-c2cnc3cc(C=NOc4ncccn4)ccn23)c1 [Compound 1-5, 1-(3-{7-[(Pyrimidin-2-yloxyimino)-methyl]-imidazo[1,2-a]pyridin-3-yl}-phenyl)-3-(2,2,2-trifluoro-ethyl)-urea] | – | – | – | 10

Continued, compound first:

Row | SMILES | IC50 (VEGFR2) [µM] | melting point [°C] | IC50 (FGFR3) [µM] | inhibition at 1 µM (VEGFR2; 1 h, % I at 1 μM) [%] | GI50 (Ba/F3-TEL-FGFR3 cells) [nM] | BaF3-TEL-FGFR3 prolif (μM) (Ba/F3-TEL-FGFR3 cells; % at 1.00 μM) [% at] | IC50 [1] [µM] | inhibition at 3 µM ([1]; Mus musculus) [%] | inhibition at 1 µM ([1]; Mus musculus, % at 1.00 μM) [%] | inhibition at 10 µM ([1]; Mus musculus) [%]
6 | CC(C)Oc1cc(NC(=O)NCC(F)(F)F)cc(-c2cnc3cc(/C(=N/O)C4CC4)ccn23)c1 [Compound 1-66, 1-[3-(7-{Cyclopropyl-[(E)-hydroxyimino]-methyl}-imidazo[1,2-a]pyridin-3-yl)-5-isopropoxy-phenyl]-3-(2,2,2-trifluoro-ethyl)-urea] | 1.4 | 222 to 223 | – | – | – | – | – | – | – | –
7 | O=C(NCC(F)(F)F)Nc1cccc(-c2cnc3cc(C=NOCC(O)CNC4CC4)ccn23)c1 (centres unmarked) [Compound 1-61, 1-(3-{7-[(3-Cyclopropylamino-2-hydroxy-propoxyimino)-methyl]-imidazo[1,2-a]pyridin-3-yl}-phenyl)-3-(2,2,2-trifluoro-ethyl)-urea] | 0.44 | – | 0.029 | – | 930 | – | – | 30 | – | –
8 | O=C(NCC(F)(F)F)Nc1cccc(-c2cnc3cc(C=NOCc4ccncc4)ccn23)c1 [Compound 1-4, 1-(3-{7-[(Pyridin-4-ylmethoxyimino)-methyl]-imidazo[1,2-a]pyridin-3-yl}-phenyl)-3-(2,2,2-trifluoro-ethyl)-urea] | 0.23 | – | 0.014 | – | 260 | – | 5.3 | – | – | –
9 | O=C(NCC(F)(F)F)Nc1cccc(-c2cnc3cc(C=NOCCOCCO)ccn23)c1 [Compound 1-7, 1-[3-(7-{[2-(2-Hydroxy-ethoxy)-ethoxyimino]-methyl}-imidazo[1,2-a]pyridin-3-yl)-phenyl]-3-(2,2,2-trifluoro-ethyl)-urea] | 0.584 | – | 0.0185 | – | 420 | – | – | 20 | – | –
10 | O=C(NCC(F)(F)F)Nc1cccc(-c2cnc3cc(C=NOCCCN4CCCC4)ccn23)c1 [Compound 1-35, 1-(3-{7-[(3-Pyrrolidin-1-yl-propoxyimino)-methyl]-imidazo[1,2-a]pyridin-3-yl}-phenyl)-3-(2,2,2-trifluoro-ethyl)-urea] | 0.33 | – | 0.023 | – | 560 | – | – | 28 | – | –
11 | CN(CCO)CCON=Cc1ccn2c(-c3cccc(NC(=O)NCC(F)(F)F)c3)cnc2c1 [Compound 1-58, 1-{3-[7-({2-[(2-Hydroxy-ethyl)-methyl-amino]-ethoxyimino}-methyl)-imidazo[1,2-a]pyridin-3-yl]-phenyl}-3-(2,2,2-trifluoro-ethyl)-urea] | 0.34 | – | 0.029 | – | 780 | – | – | – | – | 55
12 | CN(CCON=Cc1ccn2c(-c3cccc(NC(=O)NCC(F)(F)F)c3)cnc2c1)CCS(C)(=O)=O [Compound 1-42, 1-{3-[7-({2-[(2-Methanesulfonyl-ethyl)-methyl-amino]-ethoxyimino}-methyl)-imidazo[1,2-a]pyridin-3-yl]-phenyl}-3-(2,2,2-trifluoro-ethyl)-urea] | 0.54 | – | 0.017 | – | 1300 | – | – | – | – | 10
13 | O=C(NCC(F)(F)F)Nc1cccc(-c2cnc3cc(C=NOCC(O)CN4CCC(O)CC4)ccn23)c1 (centres unmarked) [Compound 1-43, 1-[3-(7-{[2-Hydroxy-3-(4-hydroxy-piperidin-1-yl)-propoxyimino]-methyl}-imidazo[1,2-a]pyridin-3-yl)-phenyl]-3-(2,2,2-trifluoro-ethyl)-urea] | 0.52 | – | 0.024 | – | 6600 | – | – | – | – | 0
14 | O=C(NCC(F)(F)F)Nc1cccc(-c2cnc3cc(C=NOCc4ccco4)ccn23)c1 [Compound 1-15, 1-(3-{7-[(Furan-2-ylmethoxyimino)-methyl]-imidazo[1,2-a]pyridin-3-yl}-phenyl)-3-(2,2,2-trifluoro-ethyl)-urea] | 0.98 | – | 0.026 | – | 43 | – | 4.6 | – | – | –
15 | O=C(NCC(F)(F)F)Nc1cccc(-c2cnc3cc(C(=NO)C4CCC4)ccn23)c1 [Compound 1-28, 1-[3-(7-{Cyclobutyl-hydroxyimino-methyl}-imidazo[1,2-a]pyridin-3-yl)-phenyl]-3-(2,2,2-trifluoro-ethyl)-urea] | 0.33 | – | 0.022 | – | 570 | – | – | 43 | – | –
16 | CCC(=NOC)c1ccn2c(-c3cccc(NC(=O)NCC(F)(F)F)c3)cnc2c1 [Compound 1-25, 1-[3-(7-{1-Methoxyimino-propyl}-imidazo[1,2-a]pyridin-3-yl)-phenyl]-3-(2,2,2-trifluoro-ethyl)-urea] | 0.24 | – | 0.011 | – | 320 | – | – | 46 | – | –
